The experiment has as its target T1, human IL-17A (Homo sapiens, UniProt Q16552).
T1 construct: purchased R&D Systems 7955-IL/CF
T1 sequence (Q16552 24-155): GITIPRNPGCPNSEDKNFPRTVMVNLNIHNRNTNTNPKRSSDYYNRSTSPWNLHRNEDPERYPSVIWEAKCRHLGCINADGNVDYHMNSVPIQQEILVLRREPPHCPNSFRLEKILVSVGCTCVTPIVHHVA
As to the kind of experiment: IL-17A AlphaLISA competition assay (block of IL-17A binding to its receptor IL-17RA). As to conditions: mean IC50 (n≥2), block of IL-17A binding to IL-17RA. As to the method:
The ability of the compounds to block binding of IL-17A to its receptor, IL-17RA, was analysed in a competition assay using AlphaLISA technology (Perkin Elmer). The assay is a bead based AlphaLISA where the IL-17RA is captured on the acceptor bead via an Fc tag and IL-17A is captured on the streptavidin donor bead via a biotinylated anti-IL17A antibody.
Assay buffer was prepared by adding 0.05% Tween-20 (v/v) and 0.1% BSA to Phosphate Buffered Saline (PBS). The assay was carried out in 384-well white low volume plates (Perkin Elmer #6008359). 10 μL of a 7.5 nM stock of human recombinant IL-17A (R&D Systems 7955-IL/CF) diluted in assay buffer was dispensed into the assay plate and compounds or DMSO vehicle control were added in a volume of 75 nL using an acoustic dispenser (Beckman). The compounds were pre-incubated with the IL-17A for 30 min at room temperature prior to addition of 5 μL of a 5 nM stock of human recombinant IL-17RA/Fc chimera (R&D Systems 177-IR-100) diluted in assay buffer. The IL-17A was incubated with the receptor for a further 90 minutes at room temperature before addition of 5 μL of a mixture of anti-human Fc IgG acceptor beads (75 μg/mL, Perkin Elmer AL1030) and anti-IL-17A biotin conjugated antibody (5 nM, Abcam, #ab155575) in assay buffer. After a further 30 min incubation at room temperature, 5 μL of streptavidin donor beads (75 μg/mL, Perkin Elmer 6760002S) were added and the plate was incubated for 3 h in the dark.
The AlphaLisa signal was measured using the PheraSTAR plate reader (BMG). Data were analysed using GeneData Screener and fitted to a 4-parameter logistic equation. The IC50 values were calculated using the DMSO vehicle as the negative control and a high concentration (4 μM) of a reference IL-17A inhibitor as the positive control. All compounds were analysed at least in duplicate (n≥2).
In general terms: Bead proximity is the source of the signal in Alpha formats.

Our source for the IC50 values is patent US20260200928A1, “THERAPEUTIC COMPOUNDS” (Sanofi, priority 2022, published 2026).

What is called IC50 is the concentration that gives 50% inhibition. “1-isopropyl-N-((1S)-2-((4-((S)-2-methoxy-1-((S)-2-oxo-4-(trifluoromethyl)imidazolidin-1-yl)ethyl)pyridin-2-yl)amino)-2-oxo-1-(4-(trifluoromethyl)cyclohexyl)ethyl)-1H-pyrazole-5-carboxamide [Example 303]” showed a 50% inhibitory concentration (IC50) of 46 nM. That is a double-digit nanomolar value. The figure for “4-Cyclopropyl-N—((S)-1-((1r,4S)-4-methylcyclohexyl)-2-oxo-2-((5-(((S)-2-oxo-4-(trifluoromethyl)imidazolidin-1-yl)methyl)pyridin-3-yl)amino)ethyl)-1,2,5-oxadiazole-3-carboxamide and 4-Cyclopropyl-N—((R)-1-((1r,4R)-4-methylcyclo-hexyl)-2-oxo-2-((5-(((S)-2-oxo-4-(trifluoromethyl)imidazolidin-1-yl)methyl)pyridin-3-yl)amino)ethyl)-1,2,5-oxadiazole-3-carboxamide [Example 84]” is 373 nM; for “4-ethyl-N-(1-(4-fluorocyclohexyl)-2-((4-((S)-2-methoxy-1-((S)-2-oxo-4-(trifluoromethyl)imidazolidin-1-yl)ethyl)pyridin-2-yl)amino)-2-oxoethyl)-1,2,5-oxadiazole-3-carboxamide [Example 285]” it is 17 nM; for `CC(C)(C)OCC(NC(=O)OCc1ccccc1)C(=O)Nc1cc(CN2C[C@@H](C(F)(F)F)NC2=O)ccn1` (mixture of isomers) [Example 81, Benzyl ((rac)-3-(tert-butoxy)-1-oxo-1-((4-(((S)-2-oxo-4-(trifluoromethyl)imidazolidin-1-yl)methyl)pyridin-2-yl)amino)propan-2-yl)carbamate] it is 6140 nM. `COCC(c1ccnc(NC(=O)[C@@H](NC(=O)c2cnc(C)nc2C(F)(F)F)[C@H]2CC[C@H](C)CC2)c1)N1C[C@@H](C(F)(F)F)NC1=O` (mixture of isomers) [Example 90, N-((1S)-2-((4-(2-methoxy-1-((RS)-2-oxo-4-(trifluoromethyl)imidazolidin-1-yl)ethyl)pyridin-2-yl)amino)-1-((1r,4S)-4-methylcyclohexyl)-2-oxoethyl)-2-methyl-4-(trifluoromethyl)pyrimidine-5-carboxamide] returned an IC50 of 4520 nM. For the molecule `COC[C@H](c1ccnc(NC(=O)[C@@H](NC(=O)C(F)(F)c2cccc(C#N)c2)[C@H]2CC[C@H](C)CC2)c1)N1C[C@@H](C(F)(F)F)NC1=O` (relative stereo) [Example 247, 2-(3-Cyanophenyl)-2,2-difluoro-N—((S)-2-((4-((S)-2-methoxy-1-((S)-2-oxo-4-(trifluoromethyl)imidazolidin-1-yl)ethyl)pyridin-2-yl)amino)-1-((1r,4S)-4-methylcyclohexyl)-2-oxoethyl)acetamide], the half-maximal inhibitory concentration (IC50) came out at 58 nM. Against the preceding molecule, the IC50 is about 78-fold lower. The figure for `Cn1nccc1C(=O)N[C@H](C(=O)Nc1cc(C(NC(=O)CCC(F)(F)F)C2CC2)ccn1)C(C1CC1)C1CC1` (single isomer, unassigned) [Example 38] is 448 nM. Turning to `O=C(CCC(F)(F)F)NC(c1ccnc(NC(=O)[C@@H](NC(=O)c2nonc2C2CC2)C(C2CC2)C2CC2)c1)C1CC1` (single isomer, unassigned) [Example 39], the half-inhibitory concentration (IC50) is 138 nM. The figure for `O=C(CCC(F)(F)F)NC(c1ccnc(NC(=O)[C@@H](NC(=O)c2nonc2C2CC2)C(C2CC2)C2CC2)c1)C1CC1` (single isomer, unassigned) [Example 40] is 92 nM.

Take `CC(C)n1nccc1C(=O)N[C@H](C(=O)Nc1cc(C(NC(=O)CCC(F)(F)F)C2CC2)ccn1)C(C1CC1)C1CC1` (single isomer, unassigned) [Example 41]: the IC50 amounted to 282 nM. The molecule `Cn1nccc1C(=O)N[C@H](C(=O)Nc1cc(C(NC(=O)CCC(F)(F)F)C2CC2)ccn1)C(C1CC1)C1CC1` (single isomer, unassigned) [Example 42] gave an IC50 of 524 nM. The result for `CC(C)n1nccc1C(=O)N[C@H](C(=O)Nc1cc(C(NC(=O)CCC(F)(F)F)C2CC2)ccn1)C(C1CC1)C1CC1` (single isomer, unassigned) [Example 43] reads 171 nM. The figure for `CCc1nocc1C(=O)N[C@H](C(=O)Nc1cc(C(NC(=O)CCC(F)(F)F)C2CC2)ccn1)C(C1CC1)C1CC1` (single isomer, unassigned) [Example 44] is 151 nM; for `CN1C[C@H]2[C@@H]([C@H]1C(=O)N[C@H](C(=O)Nc1cc(C(NC(=O)CCC(F)(F)F)C3CC3)ccn1)C(C1CC1)C1CC1)C2(C)C` (single isomer, unassigned) [Example 56] it is 7420 nM; for `COCC(c1ccnc(NC(=O)[C@@H](NC(=O)c2nonc2C2CC2)[C@H]2CC[C@H](C)CC2)c1)N1C[C@@H](C(F)(F)F)NC1=O` (single isomer, unassigned) [Example 58] it is 11 nM. The result for `COCC(c1ccnc(NC(=O)[C@@H](NC(=O)c2nonc2C2CC2)[C@H]2CC[C@H](C)CC2)c1)N1C[C@@H](C(F)(F)F)NC1=O` (single isomer, unassigned) [Example 59] reads 61 nM; that for `COCC(c1ccnc(NC(=O)[C@@H](NC(=O)OC(C)(C)C)[C@H]2CC[C@H](C)CC2)c1)N1C[C@@H](C(F)(F)F)NC1=O` (single isomer, unassigned) [Example 65, tert-butyl ((S)-2-((4-((S or R)-2-methoxy-1-((S)-2-oxo-4-(trifluoromethyl)imidazolidin-1-yl)ethyl)pyridin-2-yl)amino)-1-((1r,4S)-4-methylcyclohexyl)-2-oxoethyl)carbamate], 522 nM; that for `COCC(c1ccnc(NC(=O)[C@@H](NC(=O)OC(C)(C)C)[C@H]2CC[C@H](C)CC2)c1)N1C[C@@H](C(F)(F)F)NC1=O` (single isomer, unassigned) [Example 66, tert-butyl ((S)-2-((4-((R or S)-2-methoxy-1-((S)-2-oxo-4-(trifluoromethyl)imidazolidin-1-yl)ethyl)pyridin-2-yl)amino)-1-((1r,4S)-4-methylcyclohexyl)-2-oxoethyl)carbamate], 74 nM. Turning to `C[C@H]1CC[C@H]([C@H](NC(=O)c2ccnn2CCC(O)C(F)(F)F)C(=O)Nc2cc(CN3C[C@@H](C(F)(F)F)NC3=O)ccn2)CC1` (single isomer, unassigned) [Example 68], the IC50 worked out at 136 nM. Compared with the last molecule, the IC50 is about 1.8-fold higher.

Turning to `C[C@H]1CC[C@H]([C@H](NC(=O)c2ccnn2CCC(O)C(F)(F)F)C(=O)Nc2cc(CN3C[C@@H](C(F)(F)F)NC3=O)ccn2)CC1` (single isomer, unassigned) [Example 69], the IC50 turned out to be 126 nM.

`CC(C)(C)OC(=O)N[C@H](C(=O)Nc1cc(C(NC(=O)CCC(F)(F)F)C2CC2)ccn1)[C@H]1CC[C@H](C)CC1` (single isomer, unassigned) [Example 73] yielded an IC50 of 1010 nM.

With `CC(C)(C)OC(=O)N[C@H](C(=O)Nc1cc(C(NC(=O)CCC(F)(F)F)C2CC2)ccn1)C1CCC(F)(F)CC1` (single isomer, unassigned) [Example 74], the IC50 was found to be 2620 nM. The molecule `COCC(c1ccnc(NC(=O)[C@@H](NC(=O)c2nonc2C)[C@H]2CC[C@H](C)CC2)c1)N1C[C@@H](C(F)(F)F)NC1=O` (single isomer, unassigned) [Example 75] came in with an IC50 of 134 nM. The figure for `COCC(c1ccnc(NC(=O)[C@@H](NC(=O)c2conc2C(C)C)[C@H]2CC[C@H](C)CC2)c1)N1C[C@@H](C(F)(F)F)NC1=O` (single isomer, unassigned) [Example 77] is 60 nM; for `COCC(c1ccnc(NC(=O)[C@@H](NC(=O)c2ccnn2C(C)C)[C@H]2CC[C@H](C)CC2)c1)N1C[C@@H](C(F)(F)F)NC1=O` (single isomer, unassigned) [Example 78] it is 69 nM; for `COCC(c1ccnc(NC(=O)[C@@H](NC(=O)c2ccnn2C)[C@H]2CC[C@H](C)CC2)c1)N1C[C@@H](C(F)(F)F)NC1=O` (single isomer, unassigned) [Example 85] it is 12 nM. The figure for `COCC(c1ccnc(NC(=O)[C@@H](NC(=O)c2nonc2C)[C@H]2CC[C@H](C)CC2)c1)N1C[C@@H](C(F)(F)F)NC1=O` (single isomer, unassigned) [Example 86] is 6 nM. In the case of `COCC(c1ccnc(NC(=O)[C@@H](NC(=O)c2ccnn2C(C)C)[C@H]2CC[C@H](C)CC2)c1)N1C[C@@H](C(F)(F)F)NC1=O` (single isomer, unassigned) [Example 87], the half-maximal inhibitory concentration (IC50) came out at 13 nM. With `CCc1nonc1C(=O)N[C@H](C(=O)Nc1cc(C(COC)N2C[C@@H](C(F)(F)F)NC2=O)ccn1)[C@H]1CC[C@H](C)CC1` (single isomer, unassigned) [Example 88], the IC50 is 4 nM.
